Results from publication PMC3265452 (PLoS Neglected Tropical Diseases, 2012).
Where a name gives a salt, the structure may show the parent alone.

biological target: AaDOP2 (Aedes aegypti, UniProt H6D5H2); assay: AaDOP2 antagonist screen of the LOPAC1280 library (HEK-CRELuc-Aadop2 cells, luminescence); type: cell-based; details: not given
Sequence (H6D5H2 1-476): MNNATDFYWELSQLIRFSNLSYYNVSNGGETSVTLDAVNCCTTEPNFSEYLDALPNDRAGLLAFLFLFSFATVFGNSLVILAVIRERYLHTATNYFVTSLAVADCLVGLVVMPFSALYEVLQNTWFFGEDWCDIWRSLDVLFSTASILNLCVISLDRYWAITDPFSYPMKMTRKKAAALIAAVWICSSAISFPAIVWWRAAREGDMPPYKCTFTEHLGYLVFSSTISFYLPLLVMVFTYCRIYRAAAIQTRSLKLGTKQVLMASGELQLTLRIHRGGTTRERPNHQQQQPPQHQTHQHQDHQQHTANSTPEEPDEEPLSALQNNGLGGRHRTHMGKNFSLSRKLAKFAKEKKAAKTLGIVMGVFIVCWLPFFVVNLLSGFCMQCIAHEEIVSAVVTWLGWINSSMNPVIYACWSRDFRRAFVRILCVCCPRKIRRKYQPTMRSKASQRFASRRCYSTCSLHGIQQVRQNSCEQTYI

Compound | Compound effect (percent receptor signaling in presence of test compound, relative lux units relative to the SCH23390 control) | % of the SCH23390 effect (percent inhibition of receptor response relative to the SCH23390 control) [%]
Cc1cccc(C#Cc2ccccc2)n1.Cl [Compound 778, 6-Methyl-2-(phenylethynyl)pyridine hydrochloride] | 74 | 
CN/C(=N\c1ccc(C2=NNC(=O)CC2C)cc1)NC#N (stereo not shown) [Compound 1012, SKF 94836] | 72 | 
CN[C@@H](C)[C@H](O)c1ccccc1.CN[C@@H](C)[C@H](O)c1ccccc1.O=S(=O)(O)O [Compound 483, (-)-Ephedrine hemisulfate] | 60 | 
CC(C)[C@@]1(NC(=O)[C@@H]2C=C3c4cccc5[nH]cc(c45)C[C@H]3N(C)C2)O[C@@]2(O)[C@@H]3CCCN3C(=O)[C@H](Cc3ccccc3)N2C1=O [Compound 508, Ergocristine] | 100 | 
CC1=C(/C=C/C(C)=C/C=C/C(C)=C/C(=O)O)C(C)(C)CCC1 [Compound 1043, Retinoic acid] | 106 | 
OXA-22 iodide [Compound 326] | 88 | 
NC(=O)c1ncn([C@@H]2O[C@H](CO)[C@@H](O)[C@H]2O)n1 [Compound 1059, Ribavirin] | 119 | 
COc1cc(NS(C)(=O)=O)ccc1Nc1c2ccccc2nc2ccccc12 [Compound 112, Amsacrine hydrochloride] | 97 | 
Cl.Cl.Cn1cnc(CCN)c1 [Compound 772, 1-Methylhistamine dihydrochloride] | 94 | 
CP(=O)(O)C1=CCNCC1 [Compound 1231, TPMPA] | 112 | 
Cn1ccnc1 [Compound 804, 1-Methylimidazole] | 100 | 
CNCC[C@@H](Oc1ccc(C(F)(F)F)cc1)c1ccccc1.Cl [Compound 513, R-(-)-Fluoxetine hydrochloride] | 79 | 
O=C1OC(=O)[C@H]2[C@@H]1[C@@H]1CC[C@H]2O1 [Compound 875, Norcantharidin] | 76 | 
CN1C[C@H](CNC(=O)OCc2ccccc2)C[C@@H]2c3cccc4c3c(cn4C)C[C@H]21 [Compound 761, Metergoline] | 33 | 
COc1cc(C(O)C(=O)O)ccc1O (racemic) [Compound 573, (±)-Vanillylmandelic acid] | 115 | 
O=NN(CCCl)C(=O)NCCCl [Compound 219, Carmustine] | 82 | 
NCC1(CC(=O)O)CCCCC1 [Compound 571, Gabapentin] | 112 | 
Cn1cc(C(=O)OCC2CCN(CCNS(C)(=O)=O)CC2)c2ccccc21 [Compound 253, GR 113808] | 97 | 
CCCOC(=O)c1c(-c2ccccc2)nc(CC)c(C(=O)SCC)c1CCC [Compound 743, MRS 1523] | 101 | 
Cn1c(=O)c2c(nc(C=Cc3cccc(Cl)c3)n2C)n(C)c1=O [Compound 344, 8-(3-Chlorostyryl)caffeine] | 91 | 
C[N+]1(C)C2CCC1CC(OC(=O)c1c[nH]c3ccccc13)C2.[I-] (stereo not shown) [Compound 1224, 3-Tropanylindole-3-carboxylate methiodide] | 91 | 
CC1(C)NC(=O)N(c2ccc([N+](=O)[O-])c(C(F)(F)F)c2)C1=O [Compound 872, Nilutamide] | 93 | 
CN(C)C(=O)Oc1cccc([N+](C)(C)C)c1 [Compound 842, Neostigmine bromide] | 100 | 

Compound | Compound effect (percent receptor signaling in presence of test compound, relative lux units relative to the SCH23390 control) | % of the SCH23390 effect (percent inhibition of receptor response relative to the SCH23390 control) [%]
CNCCc1ccc(O)c(O)c1.Cl [Compound 399, N-Methyldopamine hydrochloride] | 94 | 
CC(C)(C)c1cc(C=C(C#N)C#N)cc(C(C)(C)C)c1O [Compound 1230, Tyrphostin A9] | 25 | 
CSc1ccc2c(c1)C(N1CCN(C)CC1)Cc1ccccc1S2 (stereo not shown) [Compound 825, Methiothepin mesylate] | 1 | 
O=c1cc(O)cc(/C=C/c2ccc(O)c(O)c2)o1 [Compound 592, Hispidin] | 81 | 
Cn1c(=O)c2[nH]c(-c3ccc(S(=O)(=O)O)cc3)nc2n(C)c1=O [Compound 118, 8-(p-Sulfophenyl)theophylline] | 98 | 
COc1ccc2c(c1OC)C(=O)OC2C1c2cc3c(cc2CCN1C)OCO3 (single isomer, unassigned; (+)) [Compound 605, (+)-Hydrastine] | 122 | 
CN1CC[C@]2(CCN3CCc4c(oc5ccccc45)[C@@H]3C2)N(C)C1=O [Compound 796, MK-912] | 73 | 
CCN1C(=O)C=CC1=O [Compound 490, N-Ethylmaleimide] | 87 | 
CN1CCN(C2Cc3ccccc3Sc3ccc(Cl)cc32)CC1.O=C(O)/C=C\C(=O)O (racemic) [Compound 913, (±)-Octoclothepin maleate] | 3 | 97
CC(C)C(=O)Nc1ccc([N+](=O)[O-])c(C(F)(F)F)c1 [Compound 536, Flutamide] | 99 | 
Cc1ccccc1N1CCN(S(=O)(=O)C[C@]23CC[C@H](C[C@@H]2NC(=O)[C@@H](N)CCS(C)(=O)=O)C3(C)C)CC1 [Compound 699, L-368,899] | 94 | 
OC(CN1CCN(c2cccc(Cl)c2)CC1)C(c1ccccc1)c1ccccc1 (stereo not shown) [Compound 195, BRL 15572] | 84 | 
COC(=O)C1=C(C)NC(C)=C([N+](=O)[O-])C1c1ccccc1C(F)(F)F (racemic) [Compound 203, (±)-Bay K 8644] | 73 | 
CCOC(=O)C1=C(C)NC(=S)NC1c1cccc(O)c1 (stereo not shown) [Compound 803, Monastrol] | 103 | 
CCNC(=O)N1CCN(CCCC(c2ccc(F)cc2)c2ccc(F)cc2)CC1 [Compound 76, Amperozide hydrochloride] | 17 | 
Cc1cccc(/C=C/c2ccccc2)n1 [Compound 1126, SIB 1893] | 83 | 
CC(=O)N1CCN(c2ccc(OCC3COC(Cn4ccnc4)(c4ccc(Cl)cc4Cl)O3)cc2)CC1 (stereo not shown) [Compound 683, Ketoconazole] | 85 | 
(-)-Scopolamine methyl nitrate [Compound 1087] | 113 | 
Cl.NCCc1ccc(S(=O)(=O)F)cc1 [Compound 94, 4-(2-Aminoethyl)benzenesulfonyl fluoride hydrochloride] | 105 | 
C[C@]12CCC(=O)C=C1CC[C@@H]1[C@@H]2CC[C@@]2(C)[C@H]1CC[C@]2(O)C(=O)CO [Compound 1040, Cortexolone] | 99 | 
Cc1ccc(N(CC2=NCCN2)c2cccc(O)c2)cc1 [Compound 971, Phentolamine mesylate] | 42 | 
CCCCC[C@H](CC(=O)NO)C(=O)N[C@H](C(=O)N1CCC[C@H]1CO)C(C)C [Compound 73, Actinonin] | 96 | 
CC(C)[C@H]1CN[C@H](C(=O)O)[C@H]1CC(=O)O [Compound 358, Dihydrokainic acid] | 94 | 

same assay, conditions: 10 µM compound, 300 nM dopamine, 2 hr; hit = compound effect <20

Compound | Compound effect (percent receptor signaling in presence of test compound, relative lux units relative to the SCH23390 control) [%]
CN1C2CCC1CC(NC(=O)c1nn(C)c3ccccc13)C2.O=C(O)/C=C\C(=O)O (stereo not shown) [Compound 723, LY-278,584 maleate] | 92
CCN(CC)CCOC(=O)c1cc(Cl)c(N)cc1OC.Cl [Compound 1140, SDZ-205,557 hydrochloride] | 96
NC(C(=O)O)C(O)C(=O)O (racemic) [Compound 585, DL-threo-beta-hydroxyaspartic acid] | 118
CN(C)C(=O)N=NC(=O)N(C)C [Compound 376, N,N,N',N'-Tetramethylazodicarboxamide] | 93
Cl.NCCS [Compound 787, Cysteamine hydrochloride] | 94
COc1ccc(CCNC[C@H](O)c2ccc(O)cc2)cc1OC [Compound 1072, R(-)-Denopamine] | 107

same assay, conditions: read-out: % of the SCH23390 effect (percent inhibition of receptor response relative to the SCH23390 control)

Compound | inhibition at 10 µM [%]
CSc1ccc2c(c1)C(N1CCN(C)CC1)Cc1ccccc1S2 (stereo not shown) [Compound 825, Methiothepin mesylate] | 99
CCNC(=O)N1CCN(CCCC(c2ccc(F)cc2)c2ccc(F)cc2)CC1 [Compound 76, Amperozide hydrochloride] | 83
